From ChEMBL document CHEMBL1129658, “Syntheses and conformational analyses of glutamate analogs: 2-(2-carboxy-3-substituted-cyclopropyl)glycines as useful probes for excitatory amino acid receptors” (J Med Chem, 1996) come the findings set out here.

A short description of data set [1]: pKa value by 1H NMR titration experiments; pK3. Type of data set: physicochemical.
The species named for data set [2] is Rattus norvegicus. The data set can be described thus: Depolarizing potency in new born rat spinal cord. It is filed as functional.
Data set [3] in a line: pKa value by 1H NMR titration experiments; pK2. Type of data set: physicochemical.
The nature of data set [4]: pKa value by 1H NMR titration experiments; pK1. It is filed as physicochemical.
For data set [5], the species on record is Rattus norvegicus. The data set can be described thus: Compound was tested for the inhibition of spinal reflex evoked by electrical stimulation of the dorsal root of new born rat.
Data set [6] in a line: Compound was tested for the Inhibition of forskolin-stimulated cAMP formation in the cultured spinal neurons. To be noted: Rattus norvegicus.

Turning to `COC[C@H]1[C@H](C(=O)O)[C@H]1[C@H](N)C(=O)O`, the values for the pKa in data set [1], in data set [3] and in data set [4] were 10.2, 4.2 and 2.3, respectively. The Relative potency in data set [2] is on record as 0.1.

Take `N[C@H](C(=O)O)[C@H]1C[C@@H]1C(=O)O`: the pKa in data set [1] was 9.7; in data set [3], 4.2; in data set [4], 1.9. For the same compound, the Relative potency in data set [2] came out at 6. For the same compound, the IC50 was determined as 700 nM in data set [5] and 100 nM in data set [6].

With `N[C@H](C(=O)O)[C@@H]1C[C@@H]1C(=O)O`, the values for the pKa in data set [1], in data set [3] and in data set [4] were 10, 4.6 and 2.5, respectively. This compound gave a Relative potency in data set [2] of 100.

With `N[C@H](C(=O)O)[C@H]1C[C@H]1C(=O)O`, the pKa in data set [1] was found to be 10; in data set [3], 4.3; in data set [4] it was 2.1.

Turning to `COC[C@@H]1[C@H](C(=O)O)[C@H]1[C@H](N)C(=O)O`, the pKa in data set [1] stood at 9.7; in data set [3], 4; in data set [4] it was 2.1. For the same compound, the Relative potency in data set [2] came out at 0.1.

As to `COC[C@@H]1[C@H](C(=O)O)[C@@H]1[C@H](N)C(=O)O`, the results for the pKa in data set [1], in data set [3] and in data set [4] were 10.1, 5.1 and 2, respectively. The same compound gave a Relative potency in data set [2] of 25.

In the case of `N[C@H](C(=O)O)[C@@H]1C[C@H]1C(=O)O`, the results for the pKa in data set [1], in data set [3] and in data set [4] were 9.5, 4.2 and 2.2, respectively.

For `COC[C@H]1[C@H](C(=O)O)[C@@H]1[C@H](N)C(=O)O`, the pKa in data set [1] came out at 9.6; in data set [3], 4.7; in data set [4] it was 2.2. For the same compound, the Relative potency in data set [2] was 50.

For `Cc1onc(O)c1CC(N)C(=O)O` [(R,S)-AMPA], the pKa in data set [1] was found to be 10.1; in data set [3], 5.2; in data set [4] it was 2.1.

In data set [1], `N[C@@H](CCC(=O)O)C(=O)O` [GLUTAMIC ACID] returned a pKa of 9.7. Moreover, the Relative potency in data set [2] turned out to be 1.

With `C=C(C)[C@H]1CN[C@H](C(=O)O)[C@H]1CC(=O)O` [KAINIC ACID], the pKa amounted to 10.1 in data set [1], 4.3 in data set [3] and 2.1 in data set [4]. In data set [2], this compound came in with a Relative potency of 100.

Usually pKa stands for the negative logarithm of the acid dissociation constant. Low values mean a group that gives up its proton readily, high ones a group that holds its proton tightly. As usually defined, the IC50 is the midpoint of a concentration-inhibition curve. A low value points to greater potency.
